Patent EP3818828A1 (priority 2019, dated 2021)
Values after ≈ are worked out from the molar mass of the structure shown. Where two headings read alike, the source gives them in different places.

Legend:
Type in all cases: cell-based
[1] = tested on: Pyricularia grisea; experiment: microbe, parasite or virus in culture
[2] = tested on: Phytophthora infestans; experiment: microbe, parasite or virus in culture
[3] = tested on: F. graminearum; experiment: microbe, parasite or virus in culture
[4] = tested on: Fusarium graminearum; experiment: microbe, parasite or virus in culture
[5] = tested on: Magnaporthe grisea; experiment: microbe, parasite or virus in culture
[6] = tested on: Botrytis cinerea; experiment: Ex vivo mycelial growth inhibition, growth rate method; details: 1 mg/mL
Source text: (§1) 3-(3',4'-methylenedioxy phenyl)-N-n-propyl acrylamide (at a purity of 99%), 3-(3',4'-methylenedioxy phenyl)-piperidine acrylate (at a purity of 99%), the control agents, 96.5% of chlorothalonil technical (non-systemic broad-spectrum fungicide), 97.2% of carbendazim technical (systemic broad-spectrum fungicide), 97.0% of procymidone technical (systemic fungicide), 96.0% of dimethomorphtechnical ((E,Z)-4-[3-(4-chlorphenyl)3-(3,4-dimethoxy phenyl)acryloyl]morpholine, systemic fungicide), 97.0% of azoxystrobin technical (systemic broad-spectrum fungicide).
(§2) The inhibition of samples for testing on the mycelial growth of plant pathogenic fungi for testing is determined with a growth rate method. 3-(3',4'-methylenedioxy phenyl)-N-n-propyl acrylamide, 3-(3',4'-methylenedioxy phenyl)-piperidine acrylate and five control agents are dissolved with dimethyl sulfoxide (DMSO), then formulated at 5-7 concentrations of different gradients for test following the trial test results, with the same concentration of DMSO as the control solvent, each treatment in triplicate. Fungal cakes with a diameter of 4 mm are taken from the edge of the colony, inoculated into the center of a PDA plate containing different agents of different concentrations and the DMSO control, with one piece of fungal cake inoculated in each plate (with a diameter of […]), and incubated in a constant temperature incubator at a temperature of 22±1.5°C. 7 days later (10-20 days may be needed for some pathogenic fungi), the diameter of the colony is measured with a cross over method according to the mycelial growth profile of the control pathogenic fungi, then the inhibition rate of mycelial growth is calculated.
(§3) The computational formula is as below: the inhibition rate of mycelial growth (%) = [(the diameter of the control colony - the diameter of the treated colony)/the diameter of the control colony] × 100.
(§4) The inhibition results of each agent at a concentration of 1 mg/mL on the mycelial growth of plant pathogenic fungi are shown in Tables 1 and 2.

[7] = tested on: Sclerotinia sclerotiorum; experiment: as above; details: 1 mg/mL
Source text: as §1, §2, §3, §4

[8] = tested on: F. oxysporum f. sp. vasinfectum; experiment: as above; details: 1 mg/mL
Source text: as §1, §2, §3, §4

[9] = tested on: Phytophthora capsici; experiment: as above; details: Phytophthora capsici; 1 mg/mL
Source text: as §1, §2, §3, §4

[10] = tested on: F. verticillioide; experiment: as above; details: 1 mg/mL
Source text: as §1, §2, §3, §4

[11] = tested on: Exserohilum turcicum; experiment: as above; details: 1 mg/mL
Source text: as §1, §2, §3, §4

[12] = tested on: F. oxysporum f. sp. lini; experiment: as above; details: 1 mg/mL
Source text: as §1, §2, §3, §4

[13] = tested on: C. gossypii; experiment: as above; details: 1 mg/mL
Source text: as §1, §2, §3, §4

[14] = tested on: Gaeumannomyces graminis var. graminis and G. graminis var. tritici; experiment: as above; details: 1 mg/mL
Source text: as §1, §2, §3, §4

[15] = tested on: Pythium aphanidermatum; experiment: as above; details: 1 mg/mL
Source text: as §1, §2, §3, §4

[16] = tested on: Mycosphaerlla melonis; experiment: as above; details: 1 mg/mL
Source text: as §1, §2, §3, §4

[17] = tested on: Botryosphaeriana berengeriana; experiment: as above; details: 1 mg/mL
Source text: as §1, §2, §3, §4

[18] = tested on: Botryosphaeria berengeriana; experiment: as above; details: 1 mg/mL
Source text: as §1, §2, §3, §4

[19] = tested on: Colletotrichum capsici; experiment: as above; details: 1 mg/mL
Source text: as §1, §2, §3, §4

[20] = tested on: Valsa mali; experiment: as above; details: 1 mg/mL
Source text: as §1, §2, §3, §4

[21] = tested on: Thanatephorus cucumeris; experiment: as above; details: 1 mg/mL
Source text: as §1, §2, §3, §4

[22] = tested on: Coniella diplodiella; experiment: as above; details: 1 mg/mL
Source text: as §1, §2, §3, §4

[23] = tested on: Rhizoctonia solani; experiment: as above; details: Rhizoctonia solani; 1 mg/mL
Source text: as §1, §2, §3, §4

[24] = tested on: F. graminearum; experiment: microbe, parasite or virus in culture; remark: listed apart in the source
[25] = tested on: Botrytis cinerea; experiment: Toxicity determination (EC50) on mycelial growth, growth rate method
Experimental: as §2
(§5) 3-(3',4'-methylenedioxy phenyl)-piperidine acrylate, the control agents 96.5% of chlorothalonil technical and 97.0% of procymidone technical. Agents for testing and the control agents chlorothalonil and procymidone are treated at 5-8 concentrations of different gradients on the basis of preliminary tests to ensure that the inhibition rates for treatments at all the concentrations are between 10% and 90%.
(§6) For specific determination methods, with reference to Embodiment 1. The concentration of active ingredients in the culture medium is used as the testing concentration to calculate the toxic regression equation (Y=bx+a) and the median inhibition concentration EC50, 95% confidence limit, and relative toxicity. Relative toxicity (compared to chlorothalonil) = EC50 of chlorothalonil / EC50 of 3-(3',4'-methylenedioxy phenyl)-piperidine acrylate, and relative toxicity (compared to procymidone) = EC50 of procymidone / EC50 of 3-(3',4'-methylenedioxy phenyl)-piperidine acrylate.

[26] = tested on: Sclerotinia sclerotiorum; experiment: as above
Experimental: as §2, §5, §6

[27] = tested on: Exserohilum turcicum; experiment: as above
Experimental: as §2, §5, §6

[28] = tested on: Colletotrichum capsici; experiment: as above
Experimental: as §2, §5, §6

[29] = tested on: Valsa mali; experiment: as above
Experimental: as §2, §5, §6

[30] = tested on: Fusarium graminearum; experiment: microbe, parasite or virus in culture; remark: listed apart in the source
[31] = tested on: Phytophthora infestans; experiment: microbe, parasite or virus in culture; details: 1 mg/mL
[32] = tested on: Phytophthora infestans; details: Phytophthora infestas; 1 mg/mL
[33] = EC50 of chlorothalonil / EC50 of agent
[34] = EC50 of procymidone / EC50 of agent
[35] = median inhibition concentration

CC12CC1(C)C(=O)N(c1cc(Cl)cc(Cl)c1)C2=O (centres unmarked) [Procymidone, procymidone]
Average Diameter of the Colony ([1]; 1 mg/mL): 4.63 cm | inhibition at 1000 µg/mL ([1]; read-out: Inhibition Rate): 48.6% | Relative Toxicity (Compared to Chlorothalonil) [2, 33]: 0.15 | Relative Toxicity (Compared to Procymidone) [2, 34]: 1.00 | EC50 [2, 35]: 778 µg/mL (≈ 2740 µM) | Relative Toxicity (Compared to Chlorothalonil) [3, 33]: 0.27 | Relative Toxicity (Compared to Procymidone) [3, 34]: 1.00 | EC50 ([3]; Fusarium graminearum, median inhibition concentration): 850 µg/mL (≈ 2990 µM) | Average Diameter of the Colony ([4]; 1 mg/mL): 2.26 cm | inhibition at 1000 µg/mL ([4]; read-out: Inhibition Rate): 57.7% | Relative Toxicity (Compared to Chlorothalonil) [5, 33]: 1.42 | Relative Toxicity (Compared to Procymidone) [5, 34]: 1.00 | EC50 ([5]; Pyricularia oryzae, median inhibition concentration): 308 µg/mL (≈ 1080 µM) | Average Diameter of the Colony [6]: 1.74 cm | inhibition at 1000 µg/mL [6]: 76.8% | Average Diameter of the Colony [7]: 0.00 cm | inhibition at 1000 µg/mL [7]: 100% | Average Diameter of the Colony [8]: 2.57 cm | inhibition at 1000 µg/mL ([8]; Fusarium oxysporum): 64.5% | Average Diameter of the Colony [9]: 5.10 cm | inhibition at 1000 µg/mL [9]: 3.77% | Average Diameter of the Colony [10]: 2.57 cm | inhibition at 1000 µg/mL [10]: 24% | Average Diameter of the Colony [11]: 0.24 cm | inhibition at 1000 µg/mL [11]: 96.1% | Average Diameter of the Colony [12]: 6.33 cm | inhibition at 1000 µg/mL ([12]; Fusarium oxysporum): 29.7% | Average Diameter of the Colony ([13]; C. gossypii): 1.62 cm | inhibition at 1000 µg/mL ([13]; Colletotrichum gossypii, C. cossypii, read-out: Inhibition Rate): 70% | Average Diameter of the Colony [14]: 2.16 cm | inhibition at 1000 µg/mL [14]: 69.8% | Average Diameter of the Colony [15]: 6.20 cm | inhibition at 1000 µg/mL [15]: 7.46% | Average Diameter of the Colony [16]: 0.24 cm | inhibition at 1000 µg/mL [16]: 97.2% | Average Diameter of the Colony [17]: 0.20 cm | inhibition at 1000 µg/mL [17]: 96.5% | Average Diameter of the Colony [18]: 0.15 cm | inhibition at 1000 µg/mL [18]: 97.8% | Average Diameter of the Colony [19]: 1.19 cm | inhibition at 1000 µg/mL ([19]; Colletotrichum truncatum): 82.5% | Average Diameter of the Colony [20]: 0.83 cm | inhibition at 1000 µg/mL ([20]; Cytospora mali): 89% | Average Diameter of the Colony [21]: 0.54 cm | inhibition at 1000 µg/mL [21]: 93.7% | Average Diameter of the Colony [22]: 0.06 cm | inhibition at 1000 µg/mL [22]: 99.1% | Average Diameter of the Colony [23]: 0.00 cm | inhibition at 1000 µg/mL [23]: 100% | Average Diameter of the Colony ([24]; F. graminearum, 1 mg/mL): 3.57 cm | inhibition at 1000 µg/mL ([24]; Fusarium graminearum, read-out: Inhibition Rate): 58.5% | Relative Toxicity (Compared to Chlorothalonil) [25, 33]: 2.24 | Relative Toxicity (Compared to Procymidone) [25, 34]: 1.00 | EC50 [25, 35]: 78.9 µg/mL (≈ 278 µM) | Relative Toxicity (Compared to Chlorothalonil) [26, 33]: 0.89 | Relative Toxicity (Compared to Procymidone) [26, 34]: 1.00 | EC50 [26, 35]: 70.6 µg/mL (≈ 248 µM) | Relative Toxicity (Compared to Chlorothalonil) [27, 33]: 3.92 | Relative Toxicity (Compared to Procymidone) [27, 34]: 1.00 | EC50 ([27]; median inhibition concentration, read-out: EC50): 105 µg/mL (≈ 369 µM) | EC50 ([28]; Colletotrichum truncatum, median inhibition concentration, read-out: EC50): 518 µg/mL (≈ 1820 µM) | Relative Toxicity (Compared to Chlorothalonil) [28, 33]: 0.78 | Relative Toxicity (Compared to Procymidone) [28, 34]: 1.00 | Relative Toxicity (Compared to Chlorothalonil) [29, 33]: 0.98 | Relative Toxicity (Compared to Procymidone) [29, 34]: 1.00 | EC50 [29, 35]: 427.3 µg/mL (≈ 1500 µM) | Relative Toxicity (Compared to Chlorothalonil) [30, 33]: 3.27 | Relative Toxicity (Compared to Procymidone) [30, 34]: 1.00 | EC50 [30, 35]: 144 µg/mL (≈ 505 µM) | Average Diameter of the Colony [31]: 0.00 cm | Average Diameter of the Colony [32]: 0.80 cm
